Results published in US11384097B2, “Tetrahydroisoquinoline derivative, preparation method therefor and use thereof” (ZHEJIANG HISUN PHARMACEUTICAL CO., LTD., priority 2018, dated 2022).
Like-named read-outs stand apart in the source and are kept apart here.

Legend:
[1] = Metabolic stability in rat liver microsomes; type: in vitro ADME; conditions: for half-life at 1 µM: rat liver microsomes 0.5 mg/mL, 1 μM compound, NADPH 1 mM, read-out: Half-life/(T1/2, min)
Protocol: Test Example 2. Study on the Metabolic Stability of the Compound of the Present Disclosure in Rat Liver Microsomes
The purpose of this experiment is to study the metabolic stability of the compounds of the present disclosure in rat liver microsomes.
The compounds were incubated with rat liver microsomes and coenzyme NADPH was added to initiate the reaction. At 0, 5, 15, 30 and 60 minutes, 20 μL of incubation solution was taken out and transferred to 200 μL of acetonitrile containing internal standard to stop the reaction. After protein precipitation, the resulting mixture was centrifuged at 3,700 rpm for 10 minutes, and the supernatant was taken. The supernatant was diluted 1:1 with water and analyzed by LC-MS/MS method. According to the elimination half-life of the test compound in the incubation system, the in vitro intrinsic clearance rate was calculated. Midazolam was used as the internal reference compound and all incubations were performed in duplicate in parallel.
The peak area ratio analyte/internal standard (Aanalyte/AIS) is obtained by the instrument, and the remaining percentage (% Control) is calculated from the ratio Aanalyte/AIS in the non-zero time point sample to the zero time point sample. Ln (% Control) against incubation time is plotted and a linear fit was performed.

[2] = Pharmacokinetic study in SD rats (intravenous injection and intragastric administration); type: in vivo, Sprague Dawley (SD) rats; conditions: for half-life / AUC(0-inf) / MRT / bioavailability / Cmax: male, Sprague-Dawley, rat, plasma; for half-life: read-out: Half-life T1/2 (converted); for AUC(0-inf): read-out: area under curve AUC0-∞; for MRT: read-out: residence time MRT; for bioavailability: Oral (10 mg/kg) vs Injection (1 mg/kg), read-out: Bioavailability F(%); for Cmax: read-out: blood concentration Cmax
Protocol: Test Example 3. Oral Pharmacokinetic Studies of the Compounds of the Present Disclosure in SD Rats
SD rats were used as the experimental animal. The rats were intravenously injected or intragastrically administered with the compounds of the present disclosure, and the drug concentrations in plasma at different times were tested by LC/MS/MS methods, so as to research the pharmacokinetic characteristics of compounds of present disclosure in rats.
Forty-eight healthy adult Sprague Dawley (SD) male rats were purchased from Weitong Lihua Laboratory Animal Technology Co., Ltd., production license number: 11400700271077.
48 healthy adult male SD rats were fasted overnight and administered via tail vein injection (at a dosage of 1 mg/kg) and intragastrically administered (at a dosage of 10 mg/kg), respectively. The rats were fed 4 h after the administration.
About 0.2 mL of blood was collected from the jugular vein before administering and at 0.083 hours, 0.25 hours, 0.5 hours, 1 hour, 2 hours, 4 hours, 8 hours, 12 hours, and 24 hours after administering, and heparin sodium was used for anticoagulation. Blood samples were collected and placed on ice, and plasma was separated by centrifugation (centrifugation conditions: 1500 g, 10 min). The collected plasma was stored at −40° C.-20° C. before analysis.
10 μL of plasma sample was taken and 400 μL of acetonitrile (containing internal standard working solution, comprising 5 ng/mL verapamil and 50 ng/mL glibenclamide) was added. The resulting mixture was vortexed for 10 minutes, and centrifuged at 3700 rpm for 10 minutes. 70 μL of the supernatant was taken, and […] of water was added. The resulting mixture was vortexed for 10 minutes, and 2 μL of the mixture was transferred to the LC-MS/MS for sample analysis.

[3] = molecular target: T1, Human AT2R (Homo sapiens, UniProt P50052); assay: Antagonistic activity assay on human AT2R ligand binding (Tag-lite HTRF, Tb-labeled-AT2R cells); conditions: AT2 ligand binding, red agonist fluorescent ligand
T1 construct: Terbium (Tb) donor label on the receptor; From my own knowledge, the Tag-lite format usually uses an N-terminal SNAP-tag fusion labelled with Lumi4-Tb; expressed in transfected cells
T1 sequence (P50052 1-363): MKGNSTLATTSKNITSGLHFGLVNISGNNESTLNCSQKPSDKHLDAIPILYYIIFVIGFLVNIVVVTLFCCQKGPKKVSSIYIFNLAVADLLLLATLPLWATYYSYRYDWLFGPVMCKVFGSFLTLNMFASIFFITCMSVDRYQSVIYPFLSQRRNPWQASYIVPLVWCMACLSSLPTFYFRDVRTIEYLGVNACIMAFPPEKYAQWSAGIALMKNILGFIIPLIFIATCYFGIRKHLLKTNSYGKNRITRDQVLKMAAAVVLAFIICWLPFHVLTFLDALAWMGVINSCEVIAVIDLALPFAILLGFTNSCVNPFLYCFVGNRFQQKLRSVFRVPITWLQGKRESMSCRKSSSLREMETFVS

[4] = iv, Injection (1 mg/kg), tail vein

Compound | half-life ([2]; Oral (10 mg/kg)) [h] | AUC(0-inf) ([2]; Oral (10 mg/kg)) [ng·h/mL] | MRT ([2]; Oral (10 mg/kg)) [h] | AUC(0-inf) [2, 4] [ng·h/mL] | MRT [2, 4] [h] | remaining original drug after incubation in rat liver microsomes ([1]; rat liver microsomes, 60 minutes) [%] | Cmax ([2]; Oral (10 mg/kg)) [ng/mL] | half-life [2, 4] [h] | half-life at 1 µM [1] [min] | IC50 [3] [nM] | Half-life T1/2 ([2]; Injection (1 mg/kg), tail vein) [h] | bioavailability [2] [%]
COc1ccc2c(c1OCc1ccccc1)C[C@@H](C(=O)O)N(c1nc3ccc(F)cc3o1)C2 [Example 14, (S)-5-(Benzyloxy)-2-(6-fluorobenzo[d]oxazol-2-yl)-6-methoxy-1,2,3,4-tetrahydroisoquinoline-3-carboxylic acid] | 3.6 ± 0.2 | 29600 ± 4670 | 5.3 ± 0.4 | 8230 ± 1090 | 1.9 ± 0.4 |  |  |  | 233 |  |  | 
COc1ccc2c(c1OCc1ccccc1)C[C@@H](C(=O)O)N(c1nc3ccc(C#N)cc3o1)C2 [Example 15, (S)-5-(Benzyloxy)-2-(6-cyanobenzo[d]oxazol-2-yl)-6-methoxy-1,2,3,4-tetrahydroisoquinoline-3-carboxylic acid] | 4.7 ± 1.3 | 45400 ± 11900 | 6.3 ± 1.1 | 9590 ± 579 | 2 ± 0.6 |  |  |  | 317 | 36 | 4.2 ± 1.2 | 47.3
CCS(=O)(=O)NC(=O)[C@@H]1Cc2c(ccc(OC)c2COc2ccccc2)CN1c1nc2ccc(F)cc2o1 [Example 19, (S)—N-(ethylsulfonyl)-2-(6-fluorobenzo[d]oxazol-2-yl)-6-methoxy-5-(phenoxymethyl)-1,2,3,4-tetrahydroisoquinoline-3-carboxamide] |  |  |  |  |  |  |  |  | 175 | 25 |  | 
COc1ccc2c(c1OCc1ccccc1)C[C@@H](C(=O)O)N(c1nc3ccncc3o1)C2 [Example 22, (S)-5-(benzyloxy)-6-methoxy-2-(oxazolo[5,4-c]pyridin-2-yl)-1,2,3,4-tetrahydroisoquinoline-3-carboxylic acid] | 3.9 ± 0.8 | 35700 ± 6090 | 3.7 ± 0.8 | 8020 ± 635 | 1.2 ± 0.3 | ~100 | 15900 ± 11000 | 2 ± 0.6 |  |  |  | 44.6
COc1ccc2c(c1OCc1ccc(F)cc1)C[C@@H](C(=O)O)N(c1nc3ccc(F)cc3o1)C2 [Example 29, (S)-2-(6-fluorobenzo[d]oxazol-2-yl)-5-((4-fluorobenzyl)oxy)-6-methoxy-1,2,3,4-tetrahydroisoquinoline-3-carboxylic acid] |  |  |  |  |  |  |  |  | 164 |  |  | 
COc1ccc(COc2c(OC)ccc3c2C[C@@H](C(=O)O)N(c2nc4ccc(F)cc4o2)C3)cc1 [Example 30, (S)-2-(6-fluorobenzo[d]oxazol-2-yl)-6-methoxy-5-((4-methoxybenzyl)oxy)-1,2,3,4-tetrahydroisoquinoline-3-carboxylic acid] | 3.3 ± 0.5 | 7130 ± 1630 | 3.6 ± 0.4 | 3230 ± 659 | 1.2 ± 0.4 |  |  |  | 251 | 4 | 2.4 ± 0.8 | 22.1
COc1ccc(COc2c(OC)ccc3c2C[C@@H](C(=O)O)N(c2nc4ccc(F)cc4o2)C3)nc1 [Example 36, (S)-2-(6-fluorobenzo[d]oxazol-2-yl)-6-methoxy-5-((5-methoxypyridin-2-yl)methoxy)-1,2,3,4-tetrahydroisoquinoline-3-carboxylic acid] | 3.8 ± 1 | 24700 ± 9400 | 5.4 ± 1.3 | 4600 ± 240 | 2.3 ± 0.6 |  | 4740 ± 662 | 4.8 ± 2.6 | 768 | 10 |  | 53.7
COc1ccc(COc2c(OC)ccc3c2C[C@@H](C(=O)O)N(c2nc4ccc(C#N)cc4o2)C3)cc1 [Example 42, (S)-2-(6-cyanobenzo[d]oxazol-2-yl)-6-methoxy-5-((4-methoxybenzyl)oxy)-1,2,3,4-tetrahydroisoquinoline-3-carboxylic acid] |  |  |  |  |  |  |  |  | 451 | 6 |  | 

The next lines start with results.

half-life ([2]; Oral (10 mg/kg)) [h] | AUC(0-inf) ([2]; Oral (10 mg/kg)) [ng·h/mL] | MRT ([2]; Oral (10 mg/kg)) [h] | AUC(0-inf) [2, 4] [ng·h/mL] | MRT [2, 4] [h] | remaining original drug after incubation in rat liver microsomes ([1]; rat liver microsomes, 60 minutes) [%] | Cmax ([2]; Oral (10 mg/kg)) [ng/mL] | half-life [2, 4] [h] | Compound | half-life at 1 µM [1] [min] | IC50 [3] [nM] | Half-life T1/2 ([2]; Injection (1 mg/kg), tail vein) [h] | bioavailability [2] [%]
3.6 ± 0.3 | 15300 ± 2260 | 4.3 ± 0.6 | 3380 ± 405 | 1.9 ± 0.3 |  |  |  | COc1ccc(COc2c(OC)ccc3c2C[C@@H](C(=O)O)N(c2nc4ccc(F)cc4o2)C3)cn1 [Example 39, (S)-2-(6-fluorobenzo[d]oxazol-2-yl)-6-methoxy-5-((6-methoxypyridin-3-yl)methoxy)-1,2,3,4-tetrahydroisoquinoline-3-carboxylic acid] | 845 |  | 2.3 ± 0.4 | 45.3
1.5 ± 0.3 | 1480 ± 715 | 2.6 ± 1 | 1230 ± 96 | 0.92 ± 0.16 |  | 470 ± 197 | 1.6 ± 0.3 | COc1ccc2c(c1OCc1ccccc1)C[C@@H](C(=O)O)N(C(=O)C(c1ccccc1)c1ccccc1)C2 [olodanrigan, reference compound] | 96.3 |  |  | 12.1
